According to publication PMC10174317, “^18F-labeled FGFR1 peptide: a new PET probe for subtype FGFR1 receptor imaging” (Frontiers in Oncology, 2023):
Primed or numbered codes have the meaning given here. Where no end group is shown, it is not given here. The star is where a group is joined. NOTA = O=C(O)CN1CCN(CC(=O)O)CCN(CC(=O)*)CC1; PEG2′ = not defined here

T1: FGFR1 (Homo sapiens, UniProt P11362)
T1 chain: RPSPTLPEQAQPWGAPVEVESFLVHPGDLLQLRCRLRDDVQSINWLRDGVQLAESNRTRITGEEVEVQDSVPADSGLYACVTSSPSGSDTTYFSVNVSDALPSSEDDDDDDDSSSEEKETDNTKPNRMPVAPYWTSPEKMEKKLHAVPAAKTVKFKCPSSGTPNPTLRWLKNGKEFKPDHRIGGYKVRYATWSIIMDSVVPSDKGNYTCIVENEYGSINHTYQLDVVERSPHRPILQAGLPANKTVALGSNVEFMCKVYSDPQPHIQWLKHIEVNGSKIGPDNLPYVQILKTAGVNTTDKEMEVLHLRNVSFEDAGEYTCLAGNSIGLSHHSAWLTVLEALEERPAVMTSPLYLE


Assays:
FGFR1 [1] = conditions: preclinical studies; higher affinity for FGFR1 than for other FGFR subtypes; cited from earlier work
From the text: To assess FGFR aberration status, tissue specimens generally need to be collected via invasive procedures, such as surgery or biopsy. These approaches may be limited by heterogeneity, tumor stage, the invasiveness of the procedure, long operating time and the functional status of patients’ major organs. To overcome the inconvenience of invasive operations, molecular imaging has emerged as a noninvasive method to detect FGFR expression in tumors at the cellular or subcellular level ([23]–[25]), which are different from traditional anatomic imaging. […].

FGFR1 [2] = target: T1, FGFR1; assay: saturation binding assay on RT-112 cells (radioligand)

Molecule | IC50 (FGFR1 [1]) [nM] | Kd (FGFR1 [2]) [nM]
AZD4547 | < 1 | –
{NOTA-PEG2′}-KAEWKSLGEEAWHSK (also: Al18F complexed by NOTA) [[18F]F-FGFR1 peptide (NOTA-PEG2-KAEWKSLGEEAWHSK)] | – | 190
